The results in this text go back to US12662489B2 (Sitryx Therapeutics Limited, priority 2023, dated 2026).

Test [1] deals with T1, MTHFD2 recombinant human enzyme (Homo sapiens, UniProt P13995).
T1 sequence (P13995 36-350): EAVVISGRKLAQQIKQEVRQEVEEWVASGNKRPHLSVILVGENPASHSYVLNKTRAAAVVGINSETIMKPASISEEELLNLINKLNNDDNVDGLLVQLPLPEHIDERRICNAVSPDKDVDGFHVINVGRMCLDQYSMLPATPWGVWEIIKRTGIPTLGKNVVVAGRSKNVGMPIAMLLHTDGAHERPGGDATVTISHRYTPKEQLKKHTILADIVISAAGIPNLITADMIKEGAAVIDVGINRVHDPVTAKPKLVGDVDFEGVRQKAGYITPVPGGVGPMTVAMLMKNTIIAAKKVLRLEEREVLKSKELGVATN
The test is described as follows: MTHFD2 inhibition assay (NAD(P)H-Glo luminescence). The note with it: for MTHFD1/MTHFD2 IC50 ratio: selectivity of MTHFD2 inhibition over MTHFD1, band.

The target of test [2] is T2, MTHFD1 recombinant human enzyme (Homo sapiens, UniProt P11586).
T2 sequence (P11586 2-291 limits assumed): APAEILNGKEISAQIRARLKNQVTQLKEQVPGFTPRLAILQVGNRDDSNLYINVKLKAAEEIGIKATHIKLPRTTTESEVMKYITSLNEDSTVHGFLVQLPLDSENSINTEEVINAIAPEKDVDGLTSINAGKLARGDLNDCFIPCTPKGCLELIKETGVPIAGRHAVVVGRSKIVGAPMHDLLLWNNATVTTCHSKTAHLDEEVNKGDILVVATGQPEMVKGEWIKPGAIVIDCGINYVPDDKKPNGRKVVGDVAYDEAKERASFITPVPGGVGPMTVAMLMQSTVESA
The test is described as follows: MTHFD1 inhibition assay (NAD(P)H-Glo luminescence). The conditions noted are these: MTHFD1 IC50, recombinant human enzyme 200 nM, NADP, band.

One may read the IC50 as the midpoint of a concentration-inhibition curve.

Each structure is given as a SMILES string.

For `COC[C@H]1CN(c2cc(C)c3c4c(c(=O)oc3c2C)CN(C(=O)c2ccc(C(=O)NS(=O)(=O)N3CCCC3)c(OC3CCC(F)(F)CC3)c2)CC4)CCN1C` [Example 99, (R)-2-((4,4-difluorocyclohexyl)oxy)-4-(8-(3-(methoxymethyl)-4-methylpiperazin-1-yl)-7,10-dimethyl-5-oxo-1,3,4,5-tetrahydro-2H-chromeno[3,4-c]pyridine-3-carbonyl)-N-(pyrrolidin-1-ylsulfonyl)benzamide], in test [1], the IC50 is 10 to 100 nM and the “MTHFD1/MTHFD2 IC50 ratio” value was “F (<3)”. Further, the IC50 in test [2] fell in the range of 10 to 100 nM.

For the compound `Cc1c(N2CCN3CCOC[C@H]3C2)ccc2c3c(c(=O)oc12)CN(C(=O)c1ccc(C(=O)NS(=O)(=O)N2CCCC2)c(OC2CCC2)c1)CC3` [Example 19, (R)-2-cyclobutoxy-4-(8-(hexahydropyrazino[2,1-c][1,4]oxazin-8(1H)-yl)-7-methyl-5-oxo-1,3,4,5-tetrahydro-2H-chromeno[3,4-c]pyridine-3-carbonyl)-N-(pyrrolidin-1-ylsulfonyl)benzamide], in test [1], the IC50 lay within 100 to 1000 nM and the “MTHFD1/MTHFD2 IC50 ratio” value is on record as “F (<3)”. In addition, the IC50 in test [2] fell in the range of 100 to 1000 nM.

As to `COC[C@H]1CN(c2ccc3c4c(c(=O)oc3c2C)CN(C(=O)c2cc(Cl)c(C(=O)NS(=O)(=O)C3(C)CC3)c(N3CC5CC5C3)c2)CC4)CCN1C` (stereo partly drawn) [Example 32, 2-(3-azabicyclo[3.1.0]hexan-3-yl)-6-chloro-4-(8-((R)-3-(methoxymethyl)-4-methylpiperazin-1-yl)-7-methyl-5-oxo-1,3,4,5-tetrahydro-2H-chromeno[3,4-c]pyridine-3-carbonyl)-N-((1-methylcyclopropyl)sulfonyl)benzamide], in test [1], the IC50 lay in the range of 10 to 100 nM and the “MTHFD1/MTHFD2 IC50 ratio” value is reported as “J (>30)”. Besides, the IC50 in test [2] was in the range of 100 to 1000 nM.

`COC[C@H]1CN(c2cc(C)c3c4c(c(=O)oc3c2C)CN(C(=O)c2ccc(C(=O)NS(=O)(=O)N(C)C)c(N3C5CCC3CC5)c2)CC4)CCN1C` [Example 49, (R)-2-(7-azabicyclo[2.2.1]heptan-7-yl)-N-(N,N-dimethylsulfamoyl)-4-(8-(3-(methoxymethyl)-4-methylpiperazin-1-yl)-7,10-dimethyl-5-oxo-1,3,4,5-tetrahydro-2H-chromeno[3,4-c]pyridine-3-carbonyl)benzamide]: in test [1], the IC50 lay in the range of 1 to 10 nM and the “MTHFD1/MTHFD2 IC50 ratio” value is recorded as “F (<3)”. The IC50 in test [2] fell in the range of 1 to 10 nM.

On to `COC[C@H]1CN(c2cc(C)c3c4c(c(=O)oc3c2C)CN(C(=O)c2ccc(C(=O)NS(=O)(=O)N3CCCC3)c(N3CC5CCC3C5)c2)CC4)CCN1C` (stereo partly drawn) [Example 115, 2-(2-azabicyclo[2.2.1]heptan-2-yl)-4-(8-((R)-3-(methoxymethyl)-4-methylpiperazin-1-yl)-7,10-dimethyl-5-oxo-1,3,4,5-tetrahydro-2H-chromeno[3,4-c]pyridine-3-carbonyl)-N-(pyrrolidin-1-ylsulfonyl)benzamide], for which, in test [1], the IC50 was 10 to 100 nM and the “MTHFD1/MTHFD2 IC50 ratio” value is “F (<3)”. The IC50 in test [2] is 10 to 100 nM.

On to `COC[C@H]1CN(c2ccc3c4c(c(=O)oc3c2C)CN(C(=O)c2cc(Cl)c(C(=O)NS(=O)(=O)N3CCCC3)c(N3CC5CC5C3)c2)CC4)CCN1C` (stereo partly drawn) [Example 105, 2-(3-azabicyclo[3.1.0]hexan-3-yl)-6-chloro-4-(8-((R)-3-(methoxymethyl)-4-methylpiperazin-1-yl)-7-methyl-5-oxo-1,3,4,5-tetrahydro-2H-chromeno[3,4-c]pyridine-3-carbonyl)-N-(pyrrolidin-1-ylsulfonyl)benzamide], for which, in test [1], the IC50 was in the range of 100 to 1000 nM and the “MTHFD1/MTHFD2 IC50 ratio” value is recorded as “G (^ 3 to 9.0)”. Further, the IC50 in test [2] fell in the range of 100 to 1000 nM.

Consider `COC[C@H]1CN(c2cc(C)c3c4c(c(=O)oc3c2C)CN(C(=O)c2cc(Cl)c(C(=O)NS(=O)(=O)N(C)C)c(N3CC5CC5C3)c2)CC4)CCN1C` (stereo partly drawn) [Example 34, 2-(3-azabicyclo[3.1.0]hexan-3-yl)-6-chloro-N-(N,N-dimethylsulfamoyl)-4-(8-((R)-3-(methoxymethyl)-4-methylpiperazin-1-yl)-7,10-dimethyl-5-oxo-1,3,4,5-tetrahydro-2H-chromeno[3,4-c]pyridine-3-carbonyl)benzamide], for which the IC50 was in the range of 1 to 10 nM in test [1] and 100 to 1000 nM in test [2]. Moreover, the “MTHFD1/MTHFD2 IC50 ratio” value in test [1] is recorded as “J (>30)”.

In the case of `COC[C@H]1CN(c2ccc3c4c(c(=O)oc3c2C)CN(C(=O)c2ccc(C(=O)NS(=O)(=O)N3C5CCC3CC5)c(OC3CCC3)c2F)CC4)CCN1C` [Example 176, (R)—N-((7-azabicyclo[2.2.1]heptan-7-yl)sulfonyl)-2-cyclobutoxy-3-fluoro-4-(8-(3-(methoxymethyl)-4-methylpiperazin-1-yl)-7-methyl-5-oxo-1,3,4,5-tetrahydro-2H-chromeno[3,4-c]pyridine-3-carbonyl)benzamide], in test [1], the IC50 was in the range of 10 to 100 nM and the “MTHFD1/MTHFD2 IC50 ratio” value was “F (<3)”. Further, the IC50 in test [2] lay within 10 to 100 nM.

`CCN1CCN(c2ccc3c4c(c(=O)oc3c2C)CN(C(=O)c2ccc(C(=O)NS(=O)(=O)N3CCCC3)c(OC3CCC3)c2F)CC4)C[C@@H]1COC` [Example 172, (R)-2-cyclobutoxy-4-(8-(4-ethyl-3-(methoxymethyl)piperazin-1-yl)-7-methyl-5-oxo-1,3,4,5-tetrahydro-2H-chromeno[3,4-c]pyridine-3-carbonyl)-3-fluoro-N-(pyrrolidin-1-ylsulfonyl)benzamide]: in test [1], the IC50 was 10 to 100 nM and the “MTHFD1/MTHFD2 IC50 ratio” value is recorded as “F (<3)”. Also, in test [2], the IC50 is 10 to 100 nM.

For the compound `COC[C@H]1CN(c2cc(C)c3c4c(c(=O)oc3c2C)CN(C(=O)c2cc(OC3CCC3)cc(C(=O)NS(=O)(=O)N3CCCC3)c2)CC4)CCN1C` [Example 164, (R)-3-cyclobutoxy-5-(8-(3-(methoxymethyl)-4-methylpiperazin-1-yl)-7,10-dimethyl-5-oxo-1,3,4,5-tetrahydro-2H-chromeno[3,4-c]pyridine-3-carbonyl)-N-(pyrrolidin-1-ylsulfonyl)benzamide], the figures for the IC50 in test [1] and in test [2] were 100 to 1000 nM and greater than 5000 nM, respectively. In test [1], the “MTHFD1/MTHFD2 IC50 ratio” value was “H (>9.0 to 30)”.

As for `COC[C@H]1CN(c2ccc3c4c(c(=O)oc3c2C)CN(C(=O)c2ccc(C(=O)NS(=O)(=O)N3CCCC3)c(N(C)C)c2F)CC4)CCN1C` [Example 139, (R)-2-(dimethylamino)-3-fluoro-4-(8-(3-(methoxymethyl)-4-methylpiperazin-1-yl)-7-methyl-5-oxo-1,3,4,5-tetrahydro-2H-chromeno[3,4-c]pyridine-3-carbonyl)-N-(pyrrolidin-1-ylsulfonyl)benzamide], the IC50 in test [1] and in test [2] was 100 to 1000 nM throughout. In test [1], the “MTHFD1/MTHFD2 IC50 ratio” value is “G (^ 3 to 9.0)”.

In the case of `COC[C@H]1CN(c2ccc3c4c(c(=O)oc3c2C)CN(C(=O)c2ccc(C(=O)NS(=O)(=O)N3CCCC3)c(OC3CCC3)c2F)CC4)CCN1C1CC1` [Example 173, (R)-2-cyclobutoxy-4-(8-(4-cyclopropyl-3-(methoxymethyl)piperazin-1-yl)-7-methyl-5-oxo-1,3,4,5-tetrahydro-2H-chromeno[3,4-c]pyridine-3-carbonyl)-3-fluoro-N-(pyrrolidin-1-ylsulfonyl)benzamide], in test [1], the IC50 was in the range of 1000 to 5000 nM and the “MTHFD1/MTHFD2 IC50 ratio” value is listed as “F (<3)”. Besides, the IC50 in test [2] fell in the range of 1000 to 5000 nM.

Take `CCOc1cc(C(=O)N2CCc3c(c(=O)oc4c(C)c(N5CCN(C)[C@@H](COC)C5)cc(C)c34)C2)ccc1C(=O)NS(=O)(=O)N1C2CCC1CC2` [Example 227, (R)-N-((7-azabicyclo[2.2.1]heptan-7-yl)sulfonyl)-2-ethoxy-4-(8-(3-(methoxymethyl)-4-methylpiperazin-1-yl)-7,10-dimethyl-5-oxo-1,3,4,5-tetrahydro-2H-chromeno[3,4-c]pyridine-3-carbonyl)benzamide]: in test [1], the IC50 was in the range of 1 to 10 nM and the “MTHFD1/MTHFD2 IC50 ratio” value is recorded as “H (>9.0 to 30)”. Further, the IC50 in test [2] fell in the range of 100 to 1000 nM.

Consider `COC[C@H]1CN(c2cc(C)c3c4c(c(=O)oc3c2C)CN(C(=O)c2ccc(C(=O)NS(=O)(=O)N(C)C)c(N3C5CCC3CC5)c2F)CC4)CCN1C` [Example 74, (R)-2-(7-azabicyclo[2.2.1]heptan-7-yl)-N-(N,N-dimethylsulfamoyl)-3-fluoro-4-(8-(3-(methoxymethyl)-4-methylpiperazin-1-yl)-7,10-dimethyl-5-oxo-1,3,4,5-tetrahydro-2H-chromeno[3,4-c]pyridine-3-carbonyl)benzamide], for which the IC50 in test [1] and in test [2] was 1 to 10 nM throughout. Besides, in test [1], the “MTHFD1/MTHFD2 IC50 ratio” value is listed as “F (<3)”.

`COC[C@H]1CN(c2cc(C)c3c4c(c(=O)oc3c2C)CN(C(=O)c2ccc(C(=O)NS(=O)(=O)N3CCCC3)c(N(C)C)c2F)CC4)CCN1C` [Example 138, (R)-2-(dimethylamino)-3-fluoro-4-(8-(3-(methoxymethyl)-4-methylpiperazin-1-yl)-7,10-dimethyl-5-oxo-1,3,4,5-tetrahydro-2H-chromeno[3,4-c]pyridine-3-carbonyl)-N-(pyrrolidin-1-ylsulfonyl)benzamide]: in test [1], the IC50 lay in the range of 10 to 100 nM and the “MTHFD1/MTHFD2 IC50 ratio” value was “H (>9.0 to 30)”. Moreover, in test [2], the IC50 was 100 to 1000 nM.
